# Laboratory results from ChEMBL document CHEMBL1201862, “PubChem BioAssay data set” (2004).
#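 These data come from cells grown in 96-well plates and exposed to compound for 48 hours at five concentrations. At the GI50, growth is halved.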 Activity calls are given as the source filed them. Cut-off read from the data, not from the text of the source: active = GI50 up to about 1.1 µM and inactive = higher.
# Key:
# Assay in all cases: NCI tumour cell line growth inhibition, 48 h
# 786-0 = test system: 786-0
# A498 = test system: A498
# A549 = test system: A549
# ACHN = test system: ACHN
# CAKI-1 = test system: CAKI-1
# CCRF-CEM = test system: CCRF-CEM
# DLD-1 = test system: DLD-1
# EKVX = test system: EKVX
# HCC 2998 = test system: HCC 2998
# HCT-116 = test system: HCT-116
# HCT-15 = test system: HCT-15
# HL-60 = test system: HL-60
# HOP-18 = test system: HOP-18
# HOP-62 = test system: HOP-62
# HOP-92 = test system: HOP-92
# HT-29 = test system: HT-29
# K562 = test system: K562
# KM-20L2 = test system: KM-20L2
# KM12 = test system: KM12
# LOX IMVI = test system: LOX IMVI
# LXFL 529 = test system: LXFL 529
# M14 = test system: M14
# M19-MEL = test system: M19-MEL
# MOLT-4 = test system: MOLT-4
# Malme-3M = test system: Malme-3M
# NCI-H226 = test system: NCI-H226
# NCI-H23 = test system: NCI-H23
# NCI-H460 = test system: NCI-H460
# NCI-H522 = test system: NCI-H522
# OVCAR-4 = test system: OVCAR-4
# OVCAR-8 = test system: OVCAR-8
# RXF 631 = test system: RXF 631
# SF-268 = test system: SF-268
# SF-295 = test system: SF-295
# SF-539 = test system: SF-539
# SK-MEL-28 = test system: SK-MEL-28
# SK-MEL-2 = test system: SK-MEL-2
# SK-OV-3 = test system: SK-OV-3
# SN12C = test system: SN12C
# SNB-19 = test system: SNB-19
# SNB-75 = test system: SNB-75
# SR = test system: SR
# SW-620 = test system: SW-620
# TK-10 = test system: TK-10
# U-251 = test system: U-251
# UACC-257 = test system: UACC-257
# UACC-62 = test system: UACC-62
# UO-31 = test system: UO-31
# COLO 205 = test system: COLO 205
# DMS-114 = test system: DMS-114
# DMS-273 = test system: DMS-273
# IGROV-1 = test system: IGROV-1
# OVCAR-3 = test system: OVCAR-3
# RPMI-8226 = test system: RPMI-8226
# RXF 393 = test system: RXF 393
# SK-MEL-5 = test system: SK-MEL-5
# SNB-78 = test system: SNB-78
# OVCAR-5 = test system: OVCAR-5
# XF498 = test system: XF498
compound,measurement,setting,value
CN/N=C(\C)c1c(O)cc(C)oc1=O,GI50,786-0,> 100 µM (inactive)
same,GI50,A498,> 100 µM (inactive)
same,GI50,A549,> 100 µM (inactive)
same,GI50,ACHN,> 100 µM (inactive)
same,GI50,CAKI-1,> 100 µM (inactive)
same,GI50,CCRF-CEM,> 100 µM (inactive)
same,GI50,DLD-1,> 100 µM (inactive)
same,GI50,EKVX,> 100 µM (inactive)
same,GI50,HCC 2998,> 100 µM (inactive)
same,GI50,HCT-116,> 100 µM (inactive)
same,GI50,HCT-15,> 100 µM
same,GI50,HL-60,> 100 µM (inactive)
same,GI50,HOP-18,> 100 µM (inactive)
same,GI50,HOP-62,> 100 µM (inactive)
same,GI50,HOP-92,> 100 µM (inactive)
same,GI50,HT-29,> 100 µM (inactive)
same,GI50,K562,> 100 µM (inactive)
same,GI50,KM-20L2,> 100 µM (inactive)
same,GI50,KM12,> 100 µM (inactive)
same,GI50,LOX IMVI,> 100 µM (inactive)
same,GI50,LXFL 529,> 100 µM (inactive)
same,GI50,M14,> 100 µM (inactive)
same,GI50,M19-MEL,> 100 µM (inactive)
same,GI50,MOLT-4,> 100 µM (inactive)
same,GI50,Malme-3M,> 100 µM (inactive)
same,GI50,NCI-H226,> 100 µM (inactive)
same,GI50,NCI-H23,> 100 µM (inactive)
same,GI50,NCI-H460,> 100 µM (inactive)
same,GI50,NCI-H522,> 100 µM (inactive)
same,GI50,OVCAR-4,> 100 µM (inactive)
same,GI50,OVCAR-8,> 100 µM (inactive)
same,GI50,RXF 631,> 100 µM (inactive)
same,GI50,SF-268,> 100 µM (inactive)
same,GI50,SF-295,> 100 µM (inactive)
same,GI50,SF-539,> 100 µM (inactive)
same,GI50,SK-MEL-28,> 100 µM (inactive)
same,GI50,SK-MEL-2,> 100 µM (inactive)
same,GI50,SK-OV-3,> 100 µM (inactive)
same,GI50,SN12C,> 100 µM (inactive)
same,GI50,SNB-19,> 100 µM (inactive)
same,GI50,SNB-75,> 100 µM (inactive)
same,GI50,SR,> 100 µM (inactive)
same,GI50,SW-620,> 100 µM (inactive)
same,GI50,TK-10,> 100 µM (inactive)
same,GI50,U-251,> 100 µM (inactive)
same,GI50,UACC-257,> 100 µM (inactive)
same,GI50,UACC-62,> 100 µM (inactive)
same,GI50,UO-31,> 100 µM (inactive)
NC(CCCC(N)P(=O)(O)O)P(=O)(O)O (stereo not given),GI50,786-0,> 100 µM (inactive)
same,GI50,A498,> 100 µM (inactive)
same,GI50,A549,> 100 µM (inactive)
same,GI50,ACHN,> 100 µM (inactive)
same,GI50,CAKI-1,> 100 µM (inactive)
same,GI50,CCRF-CEM,> 100 µM (inactive)
same,GI50,COLO 205,> 100 µM (inactive)
same,GI50,DLD-1,> 100 µM (inactive)
same,GI50,DMS-114,> 100 µM (inactive)
same,GI50,DMS-273,> 100 µM (inactive)
same,GI50,EKVX,> 100 µM (inactive)
same,GI50,HCC 2998,> 100 µM (inactive)
same,GI50,HCT-116,> 100 µM (inactive)
same,GI50,HCT-15,> 100 µM
same,GI50,HOP-18,> 100 µM (inactive)
same,GI50,HOP-92,64.7 µM (inactive)
same,GI50,HT-29,> 100 µM (inactive)
same,GI50,IGROV-1,> 100 µM (inactive)
same,GI50,K562,> 100 µM (inactive)
same,GI50,KM12,> 100 µM (inactive)
same,GI50,LOX IMVI,> 100 µM (inactive)
same,GI50,LXFL 529,> 100 µM (inactive)
same,GI50,M14,> 100 µM (inactive)
same,GI50,M19-MEL,> 100 µM (inactive)
same,GI50,MOLT-4,> 100 µM (inactive)
same,GI50,Malme-3M,> 100 µM (inactive)
same,GI50,NCI-H226,> 100 µM (inactive)
same,GI50,NCI-H23,> 100 µM (inactive)
same,GI50,NCI-H460,> 100 µM (inactive)
same,GI50,NCI-H522,> 100 µM (inactive)
same,GI50,OVCAR-3,> 100 µM (inactive)
same,GI50,OVCAR-8,> 100 µM (inactive)
same,GI50,RPMI-8226,> 100 µM (inactive)
same,GI50,RXF 393,> 100 µM (inactive)
same,GI50,RXF 631,> 100 µM (inactive)
same,GI50,SF-295,> 100 µM (inactive)
same,GI50,SF-539,> 100 µM (inactive)
same,GI50,SK-MEL-28,> 100 µM (inactive)
same,GI50,SK-MEL-5,> 100 µM (inactive)
same,GI50,SK-OV-3,> 100 µM (inactive)
same,GI50,SN12C,> 100 µM (inactive)
same,GI50,SNB-75,> 100 µM (inactive)
same,GI50,SNB-78,> 100 µM (inactive)
same,GI50,SW-620,> 100 µM (inactive)
same,GI50,TK-10,> 100 µM (inactive)
same,GI50,U-251,> 100 µM (inactive)
same,GI50,UACC-257,> 100 µM (inactive)
same,GI50,UACC-62,> 100 µM (inactive)
same,GI50,UO-31,> 100 µM (inactive)
O=C1CCCC(=O)N1CCc1c[nH]c2ccccc12,GI50,786-0,> 100 µM (inactive)
same,GI50,A498,77.3 µM (inactive)
same,GI50,A549,> 100 µM (inactive)
same,GI50,ACHN,> 100 µM (inactive)
same,GI50,CAKI-1,> 100 µM (inactive)
same,GI50,CCRF-CEM,> 100 µM (inactive)
same,GI50,DLD-1,> 100 µM (inactive)
same,GI50,DMS-114,> 100 µM (inactive)
same,GI50,DMS-273,> 100 µM (inactive)
same,GI50,EKVX,> 100 µM (inactive)
same,GI50,HCC 2998,> 100 µM (inactive)
same,GI50,HCT-116,> 100 µM (inactive)
same,GI50,HL-60,> 100 µM (inactive)
same,GI50,HOP-62,> 100 µM (inactive)
same,GI50,HOP-92,> 100 µM (inactive)
same,GI50,HT-29,> 100 µM (inactive)
same,GI50,IGROV-1,> 100 µM (inactive)
same,GI50,K562,> 100 µM (inactive)
same,GI50,KM-20L2,> 100 µM (inactive)
same,GI50,KM12,> 100 µM (inactive)
same,GI50,LXFL 529,> 100 µM (inactive)
same,GI50,M14,> 100 µM (inactive)
same,GI50,M19-MEL,> 100 µM (inactive)
same,GI50,MOLT-4,> 100 µM (inactive)
same,GI50,Malme-3M,> 100 µM (inactive)
same,GI50,NCI-H226,80.9 µM (inactive)
same,GI50,NCI-H23,> 100 µM (inactive)
same,GI50,NCI-H460,> 100 µM (inactive)
same,GI50,OVCAR-3,> 100 µM (inactive)
same,GI50,OVCAR-4,> 100 µM (inactive)
same,GI50,OVCAR-5,> 100 µM (inactive)
same,GI50,OVCAR-8,> 100 µM (inactive)
same,GI50,RXF 393,> 100 µM (inactive)
same,GI50,RXF 631,> 100 µM (inactive)
same,GI50,SF-268,> 100 µM (inactive)
same,GI50,SF-295,> 100 µM (inactive)
same,GI50,SF-539,> 100 µM (inactive)
same,GI50,SK-MEL-28,> 100 µM (inactive)
same,GI50,SK-MEL-2,> 100 µM (inactive)
same,GI50,SK-MEL-5,> 100 µM (inactive)
same,GI50,SK-OV-3,> 100 µM (inactive)
same,GI50,SN12C,> 100 µM (inactive)
same,GI50,SNB-19,> 100 µM (inactive)
same,GI50,SNB-75,> 100 µM (inactive)
same,GI50,SNB-78,> 100 µM (inactive)
same,GI50,SR,> 100 µM (inactive)
same,GI50,SW-620,> 100 µM (inactive)
same,GI50,TK-10,> 100 µM (inactive)
same,GI50,U-251,> 100 µM (inactive)
same,GI50,UACC-257,> 100 µM (inactive)
same,GI50,UACC-62,> 100 µM (inactive)
same,GI50,UO-31,> 100 µM (inactive)
same,GI50,XF498,> 100 µM (inactive)
